14 compounds from US20240254119A1 (THIRD HARMONIC BIO, INC., priority 2022, published 2024) can be followed below.

Where only a bound is given, the exact number is not on record here.

Data set [1] deals with CYP3A4. Nature of the data set: Hepatocyte CYP induction assay, CYP3A4 gene expression. It counts as in vitro ADME. To be noted: human hepatocytes. The protocol: Exemplary compounds were tested for ability to induce CYP3A4 and/or CYP1A2 in hepatocytes. Procedures and results are described below.
Cryopreserved human hepatocytes were purchased from BioIVT (Baltimore, MD, USA), and they were stored in liquid nitrogen before using. The detailed information of hepatocytes is as follows:
Fresh dosing solutions of test compounds, and Rifampicin were prepared in the incubation medium on the day of dosing.
Cryopreserved hepatocytes were thawed and counted to determine yield, viability was measured. Hepatocytes at the concentrations of 0.7 million/mL were transferred to collagen-coated 96-well plates for attachment (0.1 mL viable cells/well). After allowing 4 to 5 hours for attachment of cells, the plating medium was replaced with Incubation Medium containing 2% (v/v) Matrigel™ (sandwich medium) and the hepatocytes were incubated until use.
All incubations were conducted at 37° C., 5% CO2, and saturated humidity.
The sandwich medium was removed and the hepatocytes were treated with incubation solutions containing test articles in vehicle (0.1% DMSO), or positive control for 24 hours after the cultures were established. The incubation solution was aspirated and replaced with incubation solution containing the same concentrations of test articles, vehicle, or positive controls for an additional 24 hours. The total treatment period was 48 hours. Triplicate were used for each concentration of test compound and positive control.
After treatment period of 48 hours, the incubation solution was aspirated. Hepatocytes were washed once with pre-warmed HBSS and incubated with 140 μL of RLT (lysis buffer from Rneasy 96 Kit) supplemented with 1% β-mercaptoethanol. Plates were then stored at ≤−60° C. freezer until RNA analysis.
Before RNA extraction, the frozen plate was thawed and cell lysates were transferred to 96-well plates. RNA isolation was performed using QIAcube HT System. RNA concentration was measured with NanoDrop ND-2000 spectrophotometer. The purity of RNA preparation was calculated by the ratio of the OD260 nm/OD280 nm and the acceptable range is between 1.8 and 2.2. Reverse transcription was performed to obtain cDNA. Quantification of the selective genes by real time quantitative Polymerase Chain Reaction (qPCR) was performed with TaqMan universal PCR Master Mix on the BIO-RAD CFX 384 Touch Real Time PCR System. The following setting were used: 50° C. for 2 minutes, 95° C. for 10 minutes, 40 cycles of 95° C. for 15 seconds and 60° C. for 1 minute. 18S rRNA was used as the internal standard.
To account for variation in RNA yields and reverse transcription polymerase chain reaction (RT-PCR), the gene of interest in all samples was normalized to an internal control gene (18S ribosomal RNA) (Cttarget gene−Ct18S=ΔCt).
The relative quantitation or change in mRNA level of selected genes induced by each test compound was expressed in relation to the vehicle control sample (Δctcompound−ΔCtvehicle=ΔΔCt). Fold changes in gene expression were determined by taking 2 to the power of this value (2^−ΔΔt).
% of positive control [(fold change in treated sample)−1]/[(fold change in positive control)−1]×100

Data set [2] is described as follows: Kinetic solubility assay. Type of data set: physicochemical. The following applies: for Solubility (μM): kinetic solubility, 50 mM PB (pH 7.4), shaken 24 hours at RT. In short, it runs like this:
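Concentration in the filtrate was determined by UPLC-UV or HPLC-UV with a standard curve. Before that, compound (10 mM DMSO stock) in 50 mM PB at pH 7.4 was agitated 24 h at room temperature, then PTFE-filtered with centrifugation.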

For data set [3], the system named is KIT phosphorylation in M-07e cells. Nature of the data set: Cell-based KIT phosphorylation in M-07e cells by pKIT ELISA. Also on record: species or system human. To be noted: SCF stimulation. In short, it runs like this: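 Serum-starved M-07e cells (1 × 10^6/mL, overnight) were treated with compounds (8-point 3-fold series from 1 uM) for 2 h at 37 °C, then stimulated with 100 ng/mL SCF for 5 min. Lysate phospho-KIT was captured on anti-phospho-CD117 plates, detected with anti-pY-HRP, and read at 450 nm against a pc-KIT standard curve.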

The target of data set [4] is T1, wtKIT (Homo sapiens, UniProt P10721).
T1 construct: 1888289AM in the reaction mixtures
Nature of the data set: HTRF biochemical assay, wtKIT (phosphorylation of a peptide substrate). The following applies: Table 4. In short, it runs like this: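 HTRF read-out of FAM-peptide (1 µM) phosphorylation after anti-phosphotyrosine antibody addition and EDTA quench. Reaction: 5.0 nM wtKIT, 400 µM ATP, 10 mM Mn2+, HEPES pH 7.5, 1% DMSO, 3 h, 25 °C; optional enzyme-compound preincubation; enzyme level set for 10-20% conversion.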

The target of data set [5] is T2, CSF-1R (Homo sapiens, UniProt P07333).
T2 construct: purchased Invitrogen PV3249 (lot 662393N)
Nature of the data set: HTRF biochemical assay, CSF-1R. The following applies: Table 4. The protocol: (§1) Exemplary compounds were tested for ability to inhibit the phosphorylation of a peptide substrate by the tyrosine kinase wt KIT, PDGFRα, or CSF-1R. Assay procedures and results are described below.
(§2) Enzyme, substrate, and cofactors (ATP and Mn^2+) are combined in a well of a microtiter plate and incubated for 3 hours at 25° C. At the end of the incubation, the reaction is quenched by the addition of an EDTA-containing buffer.
(§3) The substrate used in the CSF-1R and PDGFRα assay is FAM-[…]-CONH2 (FAM is carboxyfluorescein). Peptide should be >95% purity. The substrate for the KIT assay is FAM-[…]-NH2.
(§4) • 1. To a well of a 384-wellplate add 5 μL of 2× enzyme buffer (or control). • 2. Add 100 nL of 100× compound. Enzyme and compound may be pre-incubated at this time if desired. • 3. Add 5 μL of 2× substrate buffer. • 4. Incubate plate at 25° C. for 3 hours. • 5. Add 10 uL of anti-phosphotyrosine antibody buffer. • 6. Read plate in BioTek Synergy Reader. Reaction Conditions for wtKIT Assay
(In TR-FRET formats the signal depends on donor and acceptor labels being close together.)

The target in data set [6] is T3, PDGFRα (Homo sapiens, UniProt P16234).
T3 construct: purchased Millipore 14-467 (lot 26321_ACTI)
The data set is described as follows: HTRF biochemical assay, PDGFRα. To be noted: Table 4, read-out: PDFGRα Biochemical IC50 avg. The protocol:
as §1, §2, §3, §4

T3 sequence (P16234 24-1089): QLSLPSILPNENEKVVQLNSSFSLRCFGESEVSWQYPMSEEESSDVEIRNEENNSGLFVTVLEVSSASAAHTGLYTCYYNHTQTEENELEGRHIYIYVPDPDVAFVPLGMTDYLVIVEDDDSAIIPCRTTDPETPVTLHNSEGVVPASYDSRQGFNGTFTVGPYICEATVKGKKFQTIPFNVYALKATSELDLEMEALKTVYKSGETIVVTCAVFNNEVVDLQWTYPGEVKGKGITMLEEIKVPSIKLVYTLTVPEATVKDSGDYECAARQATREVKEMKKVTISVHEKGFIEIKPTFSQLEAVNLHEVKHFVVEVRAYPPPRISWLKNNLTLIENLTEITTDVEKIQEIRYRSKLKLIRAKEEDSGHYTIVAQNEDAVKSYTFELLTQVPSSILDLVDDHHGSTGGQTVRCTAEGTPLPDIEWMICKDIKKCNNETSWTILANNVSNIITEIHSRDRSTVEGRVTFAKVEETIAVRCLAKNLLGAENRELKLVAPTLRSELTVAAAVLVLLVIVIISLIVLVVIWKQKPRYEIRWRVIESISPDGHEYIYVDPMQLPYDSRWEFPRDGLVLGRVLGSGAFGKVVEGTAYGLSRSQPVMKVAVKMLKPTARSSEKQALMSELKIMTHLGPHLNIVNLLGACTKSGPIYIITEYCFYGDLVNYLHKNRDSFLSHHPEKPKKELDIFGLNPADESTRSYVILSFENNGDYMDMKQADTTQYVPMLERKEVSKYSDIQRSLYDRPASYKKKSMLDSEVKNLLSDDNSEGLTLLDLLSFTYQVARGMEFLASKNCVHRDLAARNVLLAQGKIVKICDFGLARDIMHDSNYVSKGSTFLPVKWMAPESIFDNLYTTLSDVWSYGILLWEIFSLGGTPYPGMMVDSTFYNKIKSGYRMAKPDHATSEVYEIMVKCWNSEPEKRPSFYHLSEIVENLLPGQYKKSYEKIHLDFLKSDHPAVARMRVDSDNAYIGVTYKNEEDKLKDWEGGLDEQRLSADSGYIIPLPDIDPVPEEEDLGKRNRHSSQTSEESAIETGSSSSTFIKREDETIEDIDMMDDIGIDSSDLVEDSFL
T2 sequence (P07333 20-972): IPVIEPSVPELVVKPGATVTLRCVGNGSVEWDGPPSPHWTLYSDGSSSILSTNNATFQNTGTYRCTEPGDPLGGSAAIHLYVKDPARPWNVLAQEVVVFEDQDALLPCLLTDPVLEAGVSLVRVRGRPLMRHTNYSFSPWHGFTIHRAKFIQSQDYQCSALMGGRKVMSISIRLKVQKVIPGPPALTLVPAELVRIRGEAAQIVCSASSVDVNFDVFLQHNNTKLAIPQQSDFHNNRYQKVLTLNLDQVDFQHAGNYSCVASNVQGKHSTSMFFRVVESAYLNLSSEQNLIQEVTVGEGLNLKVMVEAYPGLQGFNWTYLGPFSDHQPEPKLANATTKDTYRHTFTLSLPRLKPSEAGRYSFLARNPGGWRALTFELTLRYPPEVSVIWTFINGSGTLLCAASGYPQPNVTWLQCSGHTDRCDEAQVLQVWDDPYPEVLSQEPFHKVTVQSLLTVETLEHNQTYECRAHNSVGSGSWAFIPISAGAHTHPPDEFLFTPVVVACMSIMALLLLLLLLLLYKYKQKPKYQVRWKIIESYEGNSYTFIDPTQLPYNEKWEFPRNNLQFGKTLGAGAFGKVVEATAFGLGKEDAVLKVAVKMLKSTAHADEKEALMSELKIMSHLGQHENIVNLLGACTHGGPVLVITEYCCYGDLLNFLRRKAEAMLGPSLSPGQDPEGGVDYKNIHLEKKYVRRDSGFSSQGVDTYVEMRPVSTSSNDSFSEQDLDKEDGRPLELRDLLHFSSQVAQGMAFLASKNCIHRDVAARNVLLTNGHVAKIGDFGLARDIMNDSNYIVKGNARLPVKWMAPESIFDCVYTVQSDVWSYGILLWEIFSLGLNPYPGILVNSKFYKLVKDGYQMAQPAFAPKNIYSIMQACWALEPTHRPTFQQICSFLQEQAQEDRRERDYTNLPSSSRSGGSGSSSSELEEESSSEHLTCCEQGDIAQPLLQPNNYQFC
T1 sequence (P10721 26-976): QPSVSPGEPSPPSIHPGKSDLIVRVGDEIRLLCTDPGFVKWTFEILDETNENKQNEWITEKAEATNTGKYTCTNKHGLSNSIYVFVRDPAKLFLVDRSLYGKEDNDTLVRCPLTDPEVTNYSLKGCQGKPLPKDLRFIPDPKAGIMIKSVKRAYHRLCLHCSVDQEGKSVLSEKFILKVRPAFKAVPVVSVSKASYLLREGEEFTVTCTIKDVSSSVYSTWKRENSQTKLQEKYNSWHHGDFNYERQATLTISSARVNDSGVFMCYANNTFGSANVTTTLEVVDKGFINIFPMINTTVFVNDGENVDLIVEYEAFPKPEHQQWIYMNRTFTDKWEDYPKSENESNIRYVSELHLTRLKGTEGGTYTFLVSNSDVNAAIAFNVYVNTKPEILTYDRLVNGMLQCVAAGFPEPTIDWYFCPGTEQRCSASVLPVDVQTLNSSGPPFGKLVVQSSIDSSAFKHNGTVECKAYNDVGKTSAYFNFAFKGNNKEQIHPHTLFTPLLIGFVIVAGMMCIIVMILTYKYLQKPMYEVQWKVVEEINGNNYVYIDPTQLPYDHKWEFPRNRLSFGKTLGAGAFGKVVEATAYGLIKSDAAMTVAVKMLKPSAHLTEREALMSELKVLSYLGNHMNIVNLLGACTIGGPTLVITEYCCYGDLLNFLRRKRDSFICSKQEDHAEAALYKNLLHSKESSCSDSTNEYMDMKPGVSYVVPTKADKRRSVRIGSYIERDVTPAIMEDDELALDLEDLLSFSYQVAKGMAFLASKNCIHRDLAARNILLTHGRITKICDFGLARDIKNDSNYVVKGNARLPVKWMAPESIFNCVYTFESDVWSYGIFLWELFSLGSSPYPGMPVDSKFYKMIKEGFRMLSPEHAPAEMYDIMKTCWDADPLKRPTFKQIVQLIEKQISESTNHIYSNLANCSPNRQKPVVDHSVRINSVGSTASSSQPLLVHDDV

As to `CCCS(=O)(=O)N1CC(c2nc(-c3ccc(C)c(NC(=O)c4cnc5ccccn45)c3)no2)C1` [Compound C, reference compound], the “CYP 3A4 induction mRNA: Mean fold at 10 μM” value in data set [1] (donor four) is reported as “+++ (induction fold of greater than 3-fold to less than or equal to 10-fold)”.
Turning to `Cc1ccc(-c2noc(CC(O)C(F)F)n2)cc1NC(=O)c1cnn2ccccc12` (single isomer, unassigned) [Compound I-39], the “Solubility (μM)” value in data set [2] is reported as “**** (a solubility less than or equal to 2 μM)”. Further, the “CYP 3A4 induction mRNA: Mean fold at 10 μM” value in data set [1] (donor four) was “++ (induction fold of greater than 2-fold to less than or equal to 3-fold)”.
Take `COc1ccn2c(C(=O)Nc3cc(-c4noc(C5COC5)n4)ccc3C)cnc2c1` [Compound I-51]: in data set [2], the “Solubility (μM)” value is listed as “**** (a solubility less than or equal to 2 μM)”. Further, the “CYP 3A4 induction mRNA: Mean fold at 10 μM” value in data set [1] (donor four) is reported as “++ (induction fold of greater than 2-fold to less than or equal to 3-fold)”.
As to `Cc1ccc(-c2noc([C@H]3C[C@@H]3F)n2)cc1NC(=O)c1cnc2ccc(C3CNC3)cn12` [Compound I-106], the “Solubility (μM)” value in data set [2] was “* (a solubility greater than 50 μM)”. Also, the IC50 (as a rule, the concentration at which inhibition is half-maximal) in data set [3] was 50 to 500 nM; in data set [4], ≤ 50 nM; in data set [5], ≤ 50 nM; in data set [6], 50 to 500 nM.
Regarding `Cc1ccc(-c2noc(C3CC3F)n2)cc1NC(=O)c1cnc2cc(COC3CC(O)C3)ccn12` (centres unmarked) [Compound I-85], the “Solubility (μM)” value in data set [2] is “**** (a solubility less than or equal to 2 μM)”. Moreover, the half-inhibitory concentration (IC50) was ≤ 50 nM in data set [3], ≤ 50 nM in data set [4], ≤ 50 nM in data set [5] and 500 to 5000 nM in data set [6].
Consider `Cc1ccc(-c2noc([C@@H]3CC(F)(F)CN3)n2)cc1NC(=O)c1cnc2cc(COCCO)ccn12` [Compound I-111], for which, in data set [2], the “Solubility (μM)” value was “* (a solubility greater than 50 μM)”. Further, the IC50 in data set [3] is ≤ 50 nM; in data set [4] it was ≤ 50 nM; in data set [5] it was 50 to 500 nM; in data set [6] it was 50 to 500 nM.
For the compound `COC(=O)N1CC(c2nc(-c3ccc(C)c(NC(=O)c4cnn5ccccc45)c3)no2)C1` [Compound B, reference compound], in data set [1] (donor four), the “CYP 3A4 induction mRNA: Mean fold at 10 μM” value is “++ (induction fold of greater than 2-fold to less than or equal to 3-fold)”.
Take `Cc1ccc(-c2noc(C3CC(F)(F)C3)n2)cc1NC(=O)c1cnc2ccccn12` [Compound A, reference compound]: the solubility (as a rule, how much of the substance goes into solution per volume) at 24 h in data set [2] (phosphate buffer, pH 7.4, aqueous buffer, kinetic from dmso stock) was ≤ 2 µM. Further, the “CYP 3A4 induction mRNA: Mean fold at 10 μM” value in data set [1] (donor two) was “+++ (induction fold of greater than 3-fold to less than or equal to 10-fold)”.
`CCOc1ccc2ncc(C(=O)Nc3cc(-c4noc([C@H]5C[C@@H]5F)n4)ccc3C)n2c1` [Compound I-92]: in data set [2], the “Solubility (μM)” value is listed as “**** (a solubility less than or equal to 2 μM)”. The 50% inhibitory concentration (IC50) was ≤ 50 nM in data set [3], ≤ 50 nM in data set [4], ≤ 50 nM in data set [5] and 50 to 500 nM in data set [6].
With `Cc1ccc(-c2noc(C3CC3F)n2)cc1NC(=O)c1cnc2cc(COC3CC(O)C3)ccn12` (mixture of isomers) [Compound I-72], the “Solubility (μM)” value in data set [2] is given as “**** (a solubility less than or equal to 2 μM)”. The concentration for half-maximal inhibition (IC50) in data set [3] was ≤ 50 nM; in data set [4], ≤ 50 nM; in data set [5], ≤ 50 nM; in data set [6], 500 to 5000 nM.
With `Cc1ccc(-c2noc(C[C@@H](C)O)n2)cc1NC(=O)c1cnn2ccccc12` [Compound I-81], the “Solubility (μM)” value in data set [2] was “** (a solubility greater than 10 μM and less than or equal to 50 μM)”. Further, the half-maximal inhibitory concentration (IC50) in data set [3] is ≤ 50 nM; in data set [4] it was 50 to 500 nM; in data set [5], 500 to 5000 nM; in data set [6] it was 5000 to 30000 nM.
Turning to `Cc1ccc(-c2noc(C[C@H](C)O)n2)cc1NC(=O)c1cnn2ccccc12` [Compound I-80], the “Solubility (μM)” value in data set [2] is “* (a solubility greater than 50 μM)”. The IC50 is ≤ 50 nM in data set [3], 50 to 500 nM in data set [4], 50 to 500 nM in data set [5] and 5000 to 30000 nM in data set [6].
For the compound `Cc1ccc(-c2noc([C@H]3C[C@@H]3F)n2)cc1NC(=O)c1cnc2cc(CC(F)(F)F)ccn12` [Compound I-45], the “Solubility (μM)” value in data set [2] is given as “**** (a solubility less than or equal to 2 μM)”. Besides, the “CYP 3A4 induction mRNA: Mean fold at 10 μM” value in data set [1] (donor four) is on record as “++ (induction fold of greater than 2-fold to less than or equal to 3-fold)”.
As to `Cc1ccc(-c2noc([C@H]3C[C@@H]3F)n2)cc1NC(=O)c1cnn2cc(F)ccc12` [Compound I-101], the “Solubility (μM)” value in data set [2] is “**** (a solubility less than or equal to 2 μM)”. The IC50 in data set [3] is 50 to 500 nM; in data set [4], ≤ 50 nM; in data set [5], 50 to 500 nM; in data set [6], 5000 to 30000 nM.
